Test results from paper PMC10143423, “Endoplasmic Reticulum-Targeting Two-Photon Fluorescent Probe for CYP1A Activity and Its Imaging Application in Endoplasmic Reticulum Stress” (Molecules, 2023).

Columns and labels:
CYP1A1 = molecular target: T1, CYP1A1 (Homo sapiens, UniProt P04798); test: ERNM O-demethylation enzyme kinetics in recombinant CYP1A1; format: biochemical
T1 construct: purchased BD Biosciences (Woburn, MA, USA)
T1 sequence (P04798 1-512): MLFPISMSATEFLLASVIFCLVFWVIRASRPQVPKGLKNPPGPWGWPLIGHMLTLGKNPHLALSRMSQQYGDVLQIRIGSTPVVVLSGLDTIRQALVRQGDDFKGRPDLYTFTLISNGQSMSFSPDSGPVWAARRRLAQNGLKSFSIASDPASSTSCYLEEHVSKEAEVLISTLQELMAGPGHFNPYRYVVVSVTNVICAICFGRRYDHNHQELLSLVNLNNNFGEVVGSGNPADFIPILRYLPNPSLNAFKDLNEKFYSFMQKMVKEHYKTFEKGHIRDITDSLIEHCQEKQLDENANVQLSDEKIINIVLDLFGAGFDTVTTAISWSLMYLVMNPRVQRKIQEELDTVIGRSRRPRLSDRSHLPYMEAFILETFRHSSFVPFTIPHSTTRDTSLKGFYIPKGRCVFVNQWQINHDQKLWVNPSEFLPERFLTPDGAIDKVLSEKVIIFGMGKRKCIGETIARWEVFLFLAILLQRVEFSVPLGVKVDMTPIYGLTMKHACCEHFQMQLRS
Procedure: (§1) The incubation sample consisted of NADPH-generating system (including NADP^+, magnesium chloride, glucose-6-phosphate, and glucose-6-phosphate dehydrogenase), and human liver microsomes or recombinant human CYP enzyme in potassium phosphate buffer (100 mM, pH 7.4). The total volume of the incubation mixture is 200 μL. Fluorescent substrate was dissolved in DMSO, and was pre-diluted to the working concentrations. If necessary, blank samples without NADPH or without enzymes will be set up as negative controls. The incubation reaction was initiated by adding NADP^+ after pre-incubation at 37 °C for 3 min. In addition, ice acetonitrile (100 µL) was added into the incubation samples for terminating the reaction progress. Briefly, CYP1A1 (5 nM) or CYP1A2 (5 nM) were incubated with ERNM (1, 5, 10, 15, 50, 100, 200 μM) in 200 μL of the incubation mixture in the presence of NADPH-generating systems. After incubation for 30 min, the dealkylated metabolite was measured by quantifying the intensity of fluorescence signal at 558 nm that was excited at 450 nm. Data were analyzed using GraphPad Prism 8.0 (GraphPad Software, Inc., San Diego, CA, USA).

CYP1A2 = molecular target: T2, CYP1A2 (Homo sapiens, UniProt P05177); test: ERNM O-demethylation enzyme kinetics in recombinant CYP1A2; format: biochemical
T2 construct: purchased BD Biosciences (Woburn, MA, USA)
T2 sequence (P05177 1-516): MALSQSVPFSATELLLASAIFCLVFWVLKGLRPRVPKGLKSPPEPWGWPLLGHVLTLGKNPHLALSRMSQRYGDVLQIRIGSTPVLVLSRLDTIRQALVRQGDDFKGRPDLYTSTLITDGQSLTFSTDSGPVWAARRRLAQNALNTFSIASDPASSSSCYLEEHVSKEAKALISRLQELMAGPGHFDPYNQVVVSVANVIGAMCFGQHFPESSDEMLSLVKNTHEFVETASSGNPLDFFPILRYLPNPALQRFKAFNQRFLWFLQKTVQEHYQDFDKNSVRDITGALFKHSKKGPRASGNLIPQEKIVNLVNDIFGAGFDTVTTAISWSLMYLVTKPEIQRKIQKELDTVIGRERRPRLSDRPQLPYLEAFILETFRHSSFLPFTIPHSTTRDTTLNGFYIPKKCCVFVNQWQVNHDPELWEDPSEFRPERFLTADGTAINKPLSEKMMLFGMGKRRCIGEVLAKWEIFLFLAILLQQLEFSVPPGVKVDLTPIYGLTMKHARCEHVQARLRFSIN
Procedure: as §1

A549 cells [1] = test: Colocalization of ERNM with ER-Tracker in living cells; format: cell-based; details: co-incubated with ER-Tracker Red, two-photon excitation
Procedure: The systematic evaluation of ERNM confirmed its application in complex biosystems, subsequent work is related to the investigation of the subcellular localization of ERNM in living cells. Briefly, ERNM was co-incubated with a commercial ER-Tracker (red) in A549 cells, and then imaged under two-photon (ERNM) and single-photon (ER-Tracker) excitation conditions using confocal fluorescence microscope.
(§2) A549 cells were grown in RPMI-1640 culture medium (containing 10% FBS). A549 cells were seeded and incubated at 37 °C overnight. Then, A549 cells divided into different experimental groups were treated with DTT (dithiothreitol, the in-system concentration of DTT in the incubation system is 2.5 mM) for 0, 1, 2, and 4 h. The adherent cells were washed, and ERNM was added into the cell culture media (the in-system concentration of ERNM in the incubation system is 25 μM) and incubated for 60 min. Then, the cells were rinsed with PBS for at least 3 times to remove the extracellular probe. The cell images were obtained using confocal microscope (Olympus, FV1000), and the excitation wavelength was set at 800 nm and fluorescent emission windows of 520–560 nm.

[2] = tested on: recombinant human CYP isoenzymes; test: Fluorescence response of ERNM toward various recombinant human CYPs; format: biochemical; details: CYPs 15 nM, ERNM 10 μM, 30 min, 37 °C, fluorescence 558 nm
Procedure: The incubation sample consisted of NADPH-generating system (including NADP^+, magnesium chloride, glucose-6-phosphate, and glucose-6-phosphate dehydrogenase), and human liver microsomes or recombinant human CYP enzyme in potassium phosphate buffer (100 mM, pH 7.4). The total volume of the incubation mixture is 200 μL. Fluorescent substrate was dissolved in DMSO, and was pre-diluted to the working concentrations. If necessary, blank samples without NADPH or without enzymes will be set up as negative controls. The incubation reaction was initiated by adding NADP^+ after pre-incubation at 37 °C for 3 min. […]
To reveal the enzyme specificity for ERNM, the human recombinant CYP enzymes including CYP1A1, CYP1A2, CYP1B1, CYP2A6, CYP2A13, CYP2B6, CYP2C8, CYP2C9, CYP2C18, CYP2C19, CYP2D6, CYP2E1, CYP2J2, CYP3A4, CYP3A5, CYP4A11, CYP4F2, CYP4F3, and CYP4F12 (15 nM) were incubated with ERNM (the in-system concentration of ERNM in the incubation system is 10 μM) in 200 μL of the incubation mixture in the presence of NADPH-generating systems. After incubation for 30 min at 37 °C, the dealkylated metabolite was measured by quantifying the intensity of fluorescence signal at 558 nm that was excited at 450 nm. Data were analyzed using GraphPad Prism 8.0 (GraphPad Software, Inc., San Diego, CA, USA).

CYP1A = test: Inhibition of ERNM O-demethylation in human liver microsomes by selective CYP inhibitors; format: biochemical; details: inhibitor 2.5 μM, ERNM 10 μM, HLM, fluorescence 558 nm
Procedure: The incubation mixture is 200 μL. […] Inhibition by TEPA for CYP2B6 were examined by adding ERNM after pre-incubation with NADPH-generating system at 37 °C for 30 min. […] In addition, the residual activity of samples was calculated by the percentage of fluorescence signal for the chemical inhibition group to the control group, with the absence of specific inhibitors. Data were analyzed using GraphPad Prism 8.0 (GraphPad Software, Inc., San Diego, CA, USA).

A549 cells [3] = test: CYP1A activity imaged by ERNM in DTT-induced ER stress cell model; format: cell-based; details: DTT 2.5 mM for 0, 1, 2, 4 h, imaged with ERNM 25 μM
Procedure: as §2

[4] = substrate: COc1ccc2c3c(cccc13)C(=O)N(CCNS(=O)(=O)c1ccc(C)cc1)C2=O; test: ERNM O-demethylation enzyme kinetics in recombinant CYP1A2; format: biochemical, human; details: other: CYP1A2 5 nM, ERNM 1-200 μM, 30 min, fluorescence 558 nm; pH 7.4; 37.0 °C
Procedure: as §1

[5] = substrate: COc1ccc2c3c(cccc13)C(=O)N(CCNS(=O)(=O)c1ccc(C)cc1)C2=O; test: ERNM O-demethylation enzyme kinetics in recombinant CYP1A1; format: biochemical, human; details: other: CYP1A1 5 nM, ERNM 1-200 μM, 30 min, fluorescence 558 nm; pH 7.4; 37.0 °C
Procedure: as §1

[6] = substrate inhibition constant, Table S1

Molecule: COc1ccc2c3c(cccc13)C(=O)N(CCNS(=O)(=O)c1ccc(C)cc1)C2=O [ERNM]
- Vmax for demethylation catalyzed by CYP1A1 (CYP1A1; CYP1A1 5 nM, ERNM 1-200 μM, 30 min): 1.92 ± 0.04 nmol/min/nmol P450
- Kinetic behavior of CYP1A1 mediated demethylation (CYP1A1; kinetic plot, Figure S5): kinetics of substrate inhibition
- Ksi of ERNM O-demethylation in CYP1A1 (CYP1A1; [6]): 611.3 ± 93.8 µM
- Vmax for demethylation catalyzed by CYP1A2 (CYP1A2; CYP1A2 5 nM, ERNM 1-200 μM, 30 min): 3.32 ± 0.15 nmol/min/nmol P450
- Kinetic behavior of CYP1A2 mediated demethylation (CYP1A2; kinetic plot, Figure S5): kinetics of substrate inhibition
- Ksi of ERNM O-demethylation in CYP1A2 (CYP1A2; [6]): 281.2 ± 50.2 µM
- Subcellular localization (overlap with ER-Tracker) (A549 cells [1]): exclusively target the ER
- Selectivity of fluorescence response among CYP isoenzymes [2]: CYP1A1/1A2 mediated the generation of fluorescence signals at 558 nm over other CYP isoenzymes

Molecule: O=c1cc(-c2ccccc2)oc2c1ccc1ccccc12 [α-naphthoflavone]
- Effect on generation of the ERNM fluorescence signal in human liver microsomes (CYP1A): sufficiently suppressed

Molecule: O[C@@H](CS)[C@@H](O)CS (racemic) [DTT, dithiothreitol]
- Time at which CYP1A activity reached the peak (A549 cells [3]): 2 h

B1: CYP1A2 (Homo sapiens) (protein)
chain: MALSQSVPFSATELLLASAIFCLVFWVLKGLRPRVPKGLKSPPEPWGWPLLGHVLTLGKNPHLALSRMSQRYGDVLQIRIGSTPVLVLSRLDTIRQALVRQGDDFKGRPDLYTSTLITDGQSLTFSTDSGPVWAARRRLAQNALNTFSIASDPASSSSCYLEEHVSKEAKALISRLQELMAGPGHFDPYNQVVVSVANVIGAMCFGQHFPESSDEMLSLVKNTHEFVETASSGNPLDFFPILRYLPNPALQRFKAFNQRFLWFLQKTVQEHYQDFDKNSVRDITGALFKHSKKGPRASGNLIPQEKIVNLVNDIFGAGFDTVTTAISWSLMYLVTKPEIQRKIQKELDTVIGRERRPRLSDRPQLPYLEAFILETFRHSSFLPFTIPHSTTRDTTLNGFYIPKKCCVFVNQWQVNHDPELWEDPSEFRPERFLTADGTAINKPLSEKMMLFGMGKRRCIGEVLAKWEIFLFLAILLQQLEFSVPPGVKVDLTPIYGLTMKHARCEHVQARLRFSIN
notes: purchased BD Biosciences (Woburn, MA, USA)
- Km [4]: 2.9 ± 0.5 µM
- kcat [4]: 3.32 ± 0.15 nmol/min/nmol P450

B2: CYP1A1 (Homo sapiens) (protein)
chain: MLFPISMSATEFLLASVIFCLVFWVIRASRPQVPKGLKNPPGPWGWPLIGHMLTLGKNPHLALSRMSQQYGDVLQIRIGSTPVVVLSGLDTIRQALVRQGDDFKGRPDLYTFTLISNGQSMSFSPDSGPVWAARRRLAQNGLKSFSIASDPASSTSCYLEEHVSKEAEVLISTLQELMAGPGHFNPYRYVVVSVTNVICAICFGRRYDHNHQELLSLVNLNNNFGEVVGSGNPADFIPILRYLPNPSLNAFKDLNEKFYSFMQKMVKEHYKTFEKGHIRDITDSLIEHCQEKQLDENANVQLSDEKIINIVLDLFGAGFDTVTTAISWSLMYLVMNPRVQRKIQEELDTVIGRSRRPRLSDRSHLPYMEAFILETFRHSSFVPFTIPHSTTRDTSLKGFYIPKGRCVFVNQWQINHDQKLWVNPSEFLPERFLTPDGAIDKVLSEKVIIFGMGKRKCIGETIARWEVFLFLAILLQRVEFSVPLGVKVDMTPIYGLTMKHACCEHFQMQLRS
notes: as for B1
- Km [5]: 1.0 ± 0.1 µM
- kcat [5]: 1.92 ± 0.04 nmol/min/nmol P450
